Reference: patent publication US9908831B2, “Resist composition, method for forming resist pattern, polyphenolic compound for use in the composition, and alcoholic compound that can be derived therefrom” (Mitsubishi Gas Chemical Company, Inc., priority 2011, dated 2018)

Key:
Type in all cases: physicochemical
[1] = Solubility of compound in methyl ethyl ketone (MEK); settings: dissolution amount in MEK at 23° C., visual
Protocol: (1) Solubility of Compound in Methyl Ethyl Ketone (MEK)
(§1) The solubility of the compound in MEK was evaluated according to the following standard using the dissolution amount in MEK at 23° C. For the measurement of the dissolution amount, the compound was precisely weighed in a test tube at 23° C.; and the target solvent was added to the compound so that a predetermined concentration of the liquid to be obtained was set; a ultrasonic wave was applied to the liquid in an ultrasonic washing machine for 30 minutes; and the state of the resulting liquid was visually evaluated.
Evaluation A: 50% by weight or more
Evaluation B: 10% by weigh or more and less than 50% by weight
Evaluation C: less than 10% by weight

[2] = Glass transition temperature by DSC; settings: 10° C./min to 300° C., second heating after quench, nitrogen gas stream
Protocol: (4) Glass Transition Temperature
The apparatus EXSTAR6000DSC (trade name) manufactured by SII NanoTechnology Inc. was used. About 5 mg of each sample was placed in a non-sealed container made of aluminum, and the temperature was raised to 300° C. at the rate of temperature rise of 10° C./min in a nitrogen gas stream (30 mL/min). After the non-sealed container made of aluminum was quenched, again the temperature was raised to 300° C. at the rate of temperature rise of 10° C./min in a nitrogen gas stream (30 mL/min), thereby performing DSC measurement. The temperature corresponding to the middle point (where the specific heat was changed into the half) of a region in which a discontinuous portion appeared in the baseline was defined as the glass transition point.

[3] = Solubility test of compound in safe solvent; settings: 23° C., visual
Protocol: (2) Solubility Test of Compound in Safe Solvent
as §1, with “PGME and PGMEA” for “MEK”, “each solvent.” for “MEK at 23° C.”
A: 5.0% by weight≦dissolution amount
B: 3.0% by weight≦dissolution amount<5.0% by weight
C: dissolution amount<3.0% by weight

[4] = Thermal decomposition temperature by DSC; settings: 10° C./min to 500° C., nitrogen gas stream
Protocol: (3) Thermal Decomposition Temperature
The apparatus EXSTAR6000DSC (trade name) manufactured by SII NanoTechnology Inc. was used. About 5 mg of each sample was placed in a non-sealed container made of aluminum, and the temperature was raised to 500° C. at the rate of temperature rise of 10° C./min in a nitrogen gas stream (30 mL/min). The temperature corresponding to a descending peak appeared in the baseline was defined as the thermal decomposition temperature.

Structure (SMILES)	solubility in MEK [1]	glass transition point [2]	Solubility test of compound in safe solvent PGME [3]	Solubility test of compound in safe solvent PGMEA [3]	thermal decomposition temperature [4]
Oc1ccc2ccc(O)c(C(c3ccc(-c4ccccc4)cc3)c3c(O)ccc4ccc(O)cc34)c2c1 [BisN-2]	B (Evaluation B: 10% by weigh or more and less than 50% by weight)	130 °C	A (A: 5.0% by weight≦dissolution amount)	A (A: 5.0% by weight≦dissolution amount)	250 °C
Oc1ccc2c3c(ccc2c1)Oc1ccc2cc(O)ccc2c1C31c2ccccc2-c2ccccc21 [XBisN-11]	B (Evaluation B: 10% by weigh or more and less than 50% by weight)	145 °C	A (A: 5.0% by weight≦dissolution amount)	A (A: 5.0% by weight≦dissolution amount)	450 °C
Oc1ccc2c(C(c3ccc(-c4ccc(C(c5c(O)ccc6cc(O)ccc56)c5c(O)ccc6cc(O)ccc56)cc4)cc3)c3c(O)ccc4cc(O)ccc34)c(O)ccc2c1 [BisN-13]	B (Evaluation B: 10% by weigh or more and less than 50% by weight)	130 °C	A (A: 5.0% by weight≦dissolution amount)	A (A: 5.0% by weight≦dissolution amount)	245 °C
Oc1ccc2c(C3(c4c(O)ccc5cc(O)ccc45)CCCCC3)c(O)ccc2c1 [BisN-10]	B (Evaluation B: 10% by weigh or more and less than 50% by weight)	100 °C	A (A: 5.0% by weight≦dissolution amount)	A (A: 5.0% by weight≦dissolution amount)	210 °C
Oc1ccc2c(C(c3c(O)ccc4cc(O)ccc34)c3cc4ccccc4c4ccccc34)c(O)ccc2c1 [BisN-8]	B (Evaluation B: 10% by weigh or more and less than 50% by weight)	140 °C	A (A: 5.0% by weight≦dissolution amount)	A (A: 5.0% by weight≦dissolution amount)	255 °C
Oc1cc2ccccc2c(C(c2ccc(-c3ccccc3)cc2)c2c(O)c(O)cc3ccccc23)c1O [BisN-6]	B (Evaluation B: 10% by weigh or more and less than 50% by weight)	130 °C	A (A: 5.0% by weight≦dissolution amount)	A (A: 5.0% by weight≦dissolution amount)	250 °C
Oc1cccc2c3c(ccc12)C(c1ccc(-c2ccccc2)cc1)c1ccc2c(O)cccc2c1O3 [XBisN-3]	B (Evaluation B: 10% by weigh or more and less than 50% by weight)	152 °C	A (A: 5.0% by weight≦dissolution amount)	A (A: 5.0% by weight≦dissolution amount)	410 °C
Oc1ccc2c(C(c3c(O)ccc4cc(O)ccc34)c3ccc4ccc5cccc6ccc3c4c56)c(O)ccc2c1 [BisN-9]	B (Evaluation B: 10% by weigh or more and less than 50% by weight)	140 °C	A (A: 5.0% by weight≦dissolution amount)	A (A: 5.0% by weight≦dissolution amount)	260 °C
OCCOc1ccc2c3c(ccc2c1)Oc1ccc2cc(OCCO)ccc2c1C3c1ccc(-c2ccccc2)cc1 [Example 29]	–	132 °C	–	–	375 °C
Cc1cc(C(c2ccc3ccc(C(c4cc(C)c(O)c(C)c4C)c4cc(C)c(O)c(C)c4C)cc3c2)c2cc(C)c(O)c(C)c2C)c(C)c(C)c1O [TetP-1, reference compound]	–	–	A (A: 5.0% by weight≦dissolution amount)	A (A: 5.0% by weight≦dissolution amount)	–
Oc1cc2ccccc2c2c1Oc1c(O)cc3ccccc3c1C2c1ccc(-c2ccccc2)cc1 [XBisN-6]	B (Evaluation B: 10% by weigh or more and less than 50% by weight)	152 °C	A (A: 5.0% by weight≦dissolution amount)	A (A: 5.0% by weight≦dissolution amount)	410 °C
Oc1cccc2c(O)c(C(c3ccc(-c4ccccc4)cc3)c3ccc4c(O)cccc4c3O)ccc12 [BisN-3]	B (Evaluation B: 10% by weigh or more and less than 50% by weight)	130 °C	A (A: 5.0% by weight≦dissolution amount)	A (A: 5.0% by weight≦dissolution amount)	250 °C
Oc1ccc2ccc3c(c2c1)Oc1c(ccc2ccc(O)cc12)C3c1ccc(-c2ccccc2)cc1 [XBisN-5]	B (Evaluation B: 10% by weigh or more and less than 50% by weight)	152 °C	A (A: 5.0% by weight≦dissolution amount)	A (A: 5.0% by weight≦dissolution amount)	410 °C
Oc1ccc2c3c(ccc2c1)Oc1ccc2cc(O)ccc2c1C3c1ccc(C2c3c(ccc4cc(O)ccc34)Oc3ccc4cc(O)ccc4c32)cc1 [XBisN-12]	B (Evaluation B: 10% by weigh or more and less than 50% by weight)	152 °C	A (A: 5.0% by weight≦dissolution amount)	A (A: 5.0% by weight≦dissolution amount)	410 °C
Oc1ccc2ccc(C(c3ccc(-c4ccccc4)cc3)c3ccc4ccc(O)cc4c3O)c(O)c2c1 [BisN-5]	B (Evaluation B: 10% by weigh or more and less than 50% by weight)	130 °C	A (A: 5.0% by weight≦dissolution amount)	A (A: 5.0% by weight≦dissolution amount)	250 °C
Oc1ccc2c3c(ccc2c1)Oc1ccc2cc(O)ccc2c1C31CCCCC1 [XBisN-10]	B (Evaluation B: 10% by weigh or more and less than 50% by weight)	140 °C	A (A: 5.0% by weight≦dissolution amount)	A (A: 5.0% by weight≦dissolution amount)	400 °C
Oc1ccc2c(C(c3cccc4ccccc34)c3c(O)ccc4cc(O)ccc34)c(O)ccc2c1 [BisN-7]	B (Evaluation B: 10% by weigh or more and less than 50% by weight)	135 °C	A (A: 5.0% by weight≦dissolution amount)	A (A: 5.0% by weight≦dissolution amount)	255 °C
Oc1cc(O)c2cc1C(c1ccc(C3CCCCC3)cc1)c1cc(c(O)cc1O)C(c1ccc(C3CCCCC3)cc1)c1cc(c(O)cc1O)C(c1ccc(C3CCCCC3)cc1)c1cc(c(O)cc1O)C2c1ccc(C2CCCCC2)cc1 (stereo not drawn) [CR-1, reference compound]	–	–	B (B: 3.0% by weight≦dissolution amount<5.0% by weight)	C (C: dissolution amount<3.0% by weight)	–
